Measurements from patent US20150261911A1, “CRYSTAL STRUCTURE” (Heptares Therapeutics Limited, priority 2014, published 2015).
Changes are numbered by the printed parent chain. Numbers in names are those of the source. Entries after “also recorded” stand apart in the source; their conditions may differ.

B1: CRF1R wild type: wild-type human corticotropin-releasing factor receptor 1 (FIG. 12, SEQ ID NO:18) (protein)
chain: MGGHPQLRLVKALLLLGLNPVSASLQDQHCESLSLASNISGLQCNASVDLIGTCWPRSPAGQLVVRPCPAFFYGVRYNTTNNGYRECLANGSWAARVNYSECQEILNEEKKSKVHYHVAVIINYLGHCISLVALLVAFVLFLRLRSIRCLRNIIHWNLISAFILRNATWFVVQLTMSPEVHQSNVGWCRLVTAAYNYFHVTNFFWMFGEGCYLHTAIVLTYSTDRLRKWMFICIGWGVPFPIIVAWAIGKLYYDNEKCWFGKRPGVYTDYIYQGPMILVLLINFIFLFNIVRILMTKLRASTTSETIQYRKAVKATLVLLPLLGITYMLFFVNPGEDEVSRVVFIYFNSFLESFQGFFVSVFYCFLNSEVRSAIRKRWHRWQDKHSIRARVARAMSIPTSPTRVSFHSIKQSTAVAAAENLYFQSEQKLISEEDLHHHHHHHHHH
B2: CRF1R StaR: thermostabilized CRF1R with 12 mutations: V120A, L144A, W156A, S160A, S222A, K228A, F260A, I277A, Y309A, F330A, S349A, Y363A (protein)
chain: MGGHPQLRLVKALLLLGLNPVSASLQDQHCESLSLASNISGLQCNASVDLIGTCWPRSPAGQLVVRPCPAFFYGVRYNTTNNGYRECLANGSWAARVNYSECQEILNEEKKSKVHYHVAAIINYLGHCISLVALLVAFVLFLRARSIRCLRNIIHANLIAAFILRNATWFVVQLTMSPEVHQSNVGWCRLVTAAYNYFHVTNFFWMFGEGCYLHTAIVLTYATDRLRAWMFICIGWGVPFPIIVAWAIGKLYYDNEKCWAGKRPGVYTDYIYQGPMALVLLINFIFLFNIVRILMTKLRASTTSETIQARKAVKATLVLLPLLGITYMLAFVNPGEDEVSRVVFIYFNAFLESFQGFFVSVFACFLNSEVRSAIRKRWHRWQDKHSIRARVARAMSIPTSPTRVSFHSIKQSTAVAAAENLYFQSEQKLISEEDLHHHHHHHHHH
modifications: C-terminal tag

Tests used:
CRF1R F203A(3.44) = biological target: T1, CRF1R F203A(3.44) (Homo sapiens, UniProt P34998, F203A); test: Solubilised whole cell ligand binding, alanine mutagenesis; conditions: Phe203^3.44Ala
T1 construct: expressed in transfected cells; host or cells: HEK293T, transient; whole cells solubilised in DDM
T1 sequence (P34998 with tags, fused parts or gaps F203A): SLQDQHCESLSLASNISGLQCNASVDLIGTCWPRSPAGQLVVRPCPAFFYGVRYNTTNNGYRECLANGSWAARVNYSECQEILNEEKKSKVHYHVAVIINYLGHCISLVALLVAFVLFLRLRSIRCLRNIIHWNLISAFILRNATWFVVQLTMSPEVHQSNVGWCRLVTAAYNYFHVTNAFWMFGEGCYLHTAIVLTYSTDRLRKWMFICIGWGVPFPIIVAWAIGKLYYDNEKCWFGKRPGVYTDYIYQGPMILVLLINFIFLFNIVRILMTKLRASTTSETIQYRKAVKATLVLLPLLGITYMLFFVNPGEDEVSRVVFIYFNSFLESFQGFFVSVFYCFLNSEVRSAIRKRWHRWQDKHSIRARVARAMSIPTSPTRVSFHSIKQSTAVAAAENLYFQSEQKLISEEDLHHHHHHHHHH
Procedure: (§1) HEK293T cells transiently transfected with CRF1R constructs were incubated in buffer (50mMTris-HCl pH 7.5, 150mMNaCl, EDTA-free protease inhibitors) with 30 nM [^3H]CP-376395, and 120 nM cold CP-376395 (Tocris) for 18 hours at room temperature. Reactions were transferred to ice and all subsequent steps performed at 4° C. Cells were solubilized in 1% (w/v) n-dodecyl-β-D-maltopyranoside (DDM, Affymetrix) for 1 hour and crude lysates cleared by centrifugation at 16.000×g for 15 minutes. Thermostability of the receptor was measured by incubation at varying temperatures for 30 minutes followed by separation of excess and unbound radioligand by gel filtration. Levels of ligand-bound receptor were then determined using a liquid scintillation counter.
(§2) For saturation binding experiments, membranes isolated from HEK293T cells transiently expressing wild-type CRF1R (15 μg/well), CRF1R StaR (6 μg/well), CRF1R StaR with T4L fusion (20 μg/well), and CRF1R-#105 (20 μg/well) were incubated in buffer (50mMTris-HCl pH 7.5, 150 mM NaCl, 0.1% (w/v) PEI, EDTA-free protease inhibitors) with [^3H]CP-376395 (0-60 nM) in the presence or absence of 30 uM cold CP-376395 in a final volume of 500 μl. Final DMSO concentration in each reaction was 5% (v/v). Membranes were incubated for 18 hours at room temperature before being terminated by rapid filtration through 96-well GF/C UniFilter plates pre-soaked in 0.3% (w/v) PEI, followed by washing with PBS with 0.15% (w/v) CHAPS. Plates were dried, 50 μl Ultima Gold-F added per well and bound ligand measured using a Packard Microbeta counter. Data were analyzed using a global fitted one-site binding hyperbola in GraphPad Prism v5 to generate Kd. For solubilized whole cell ligand binding experiments, HEK293T cells transiently expressing eGFP-tagged wild-type CRF1R or single point mutants were treated as described above for thermostability experiments, without the 30 minute heating step. Specific binding was determined by subtracting untransfected controls. Expression of each construct was quantified by eGFP fluorescence of whole cells measured at Ex/Em of 488/520 nm.

CRF1R N283A(5.50) = biological target: T2, CRF1R N283A(5.50) (Homo sapiens, UniProt P34998, N283A); test: as above; conditions: Asn283^5.50Ala
T2 construct: expressed in transfected cells; host or cells: HEK293T, transient; whole cells solubilised in DDM
T2 sequence (P34998 with tags, fused parts or gaps N283A): T1 sequence (P34998 with tags, fused parts or gaps F203A) with A180F, N260A
Procedure: as §1, §2

CRF1R Q355A(7.49) = biological target: T3, CRF1R Q355A(7.49) (Homo sapiens, UniProt P34998, Q355A); test: as above; conditions: Gln355^7.49 substituted with alanine
T3 construct: expressed in transfected cells; host or cells: HEK293T, transient; whole cells solubilised in DDM
T3 sequence (P34998 with tags, fused parts or gaps Q355A): T1 sequence (P34998 with tags, fused parts or gaps F203A) with A180F, Q332A
Procedure: as §1, §2

CRF1R L280A(5.47) = biological target: T4, CRF1R L280A(5.47) (Homo sapiens, UniProt P34998, L280A); test: as above; conditions: Leu280^5.47Ala
T4 construct: expressed in transfected cells; host or cells: HEK293T, transient; whole cells solubilised in DDM
T4 sequence (P34998 with tags, fused parts or gaps L280A): T1 sequence (P34998 with tags, fused parts or gaps F203A) with A180F, L257A
Procedure: as §1, §2

[1] = Thermostability measurement of CRF1R constructs solubilised in DDM, read out by [3H]CP-376395 binding; type: physicochemical, human; conditions: measured using [3H]CP-376395 binding, mean of four independent experiments, standard deviation in parentheses
Procedure: as §1

Molecule	antagonist binding after mutation to alanine (CRF1R F203A(3.44))	ligand binding after mutation to alanine (CRF1R N283A(5.50))	CP-376395 binding after substitution with alanine (CRF1R Q355A(7.49))	antagonist binding after mutation to alanine (CRF1R L280A(5.47))	Mean Tm [1]
CCC(CC)Nc1cc(C)nc(Oc2c(C)cc(C)cc2C)c1C [CP-376395]	negligible or no binding detected	complete loss of ligand binding; also recorded: negligible or no binding detected	did not affect	negligible or no binding detected	
B1					18.4 (2.0) ° C.
B2					44.7 (2.2) ° C.
